From ChEMBL document CHEMBL5727585, “Carboxylic acid URAT1 inhibitor containing diarylmethane structure, preparation method and use thereof” (2020)

Target: T1, Solute carrier family 22 member 12 (Homo sapiens, UniProt Q96S37)
T1 sequence (Q96S37 whole entry): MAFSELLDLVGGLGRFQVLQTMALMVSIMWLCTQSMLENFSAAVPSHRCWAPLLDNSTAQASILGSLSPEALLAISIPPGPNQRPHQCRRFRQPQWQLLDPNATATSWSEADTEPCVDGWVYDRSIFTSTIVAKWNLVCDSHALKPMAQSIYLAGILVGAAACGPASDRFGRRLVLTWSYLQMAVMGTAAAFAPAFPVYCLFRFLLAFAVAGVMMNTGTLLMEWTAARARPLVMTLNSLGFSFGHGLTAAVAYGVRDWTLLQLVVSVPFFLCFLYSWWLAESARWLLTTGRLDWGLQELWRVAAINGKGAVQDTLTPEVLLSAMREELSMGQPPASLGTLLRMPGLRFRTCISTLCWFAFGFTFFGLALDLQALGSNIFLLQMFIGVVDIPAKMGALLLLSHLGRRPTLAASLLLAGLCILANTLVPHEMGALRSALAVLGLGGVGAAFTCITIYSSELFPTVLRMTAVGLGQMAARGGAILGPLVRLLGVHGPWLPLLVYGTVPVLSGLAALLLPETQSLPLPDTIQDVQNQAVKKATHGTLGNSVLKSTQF
Assay: IC50 for Inhibition of the Test Compounds on URAT1: After trypsin digestion, the expression cells (HEK293) stably expressing URAT1 gene and mock cells were all inoculated into lysine-coated 24-well culture plates, with the cell inoculation density being 1×10^5 cells/well, and cultured in incubator at 37° C., 5% CO2 and saturated humidity for 2 days. The culture fluid in the culture plate was removed, and the cultured cells were washed twice with DPBS and subjected to warm bath in DPBS buffer solution at 37° C. for 10 min, and then a solution (500 μL) containing radioactive labeled probe substrate ([8-14C] uric acid) and 10 μM test compound (or blank) was used to substitute for DPBS, with the concentration of [8-14C] uric acid being 30 μM and the radiation intensity per well being 0.867 μCi. After 2 min, the reaction was terminated with ice-bathed DPBS buffer solution and washing was carried out for three times. Then 0.1 mol/L NaOH (500 μL) was added into each well to lyse the cells, the lysate was extracted into a scintillation vial and a scintillation fluid (Aquasol-2, 3 mL) was added, and the intensity of radioactivity in the sample was measured using a Tri-Carb 2910TR liquid scintillation analyzer (PerkinElmer, Waltham, USA). […] […]

Compound | IC50 [nM]
CC(C)(Sc1nnc(Br)n1-c1ccc(C2CC2)c2ccccc12)C(=O)O | 2130
O=C(O)CCc1nnc(Br)n1-c1ccc(C2CC2)c2ccccc12 | 1810
